Assays:
[1] = In vitro stability of Re complexes to cysteine challenge, 31P NMR; type: physicochemical; conditions: for ligand exchange or complex decomposition: 1 M cysteine, 25° C, ~0.01 M complex
Method: Appropriate sample sizes of complexes 8, 9, and 10 were dissolved in 10 mL of deionized water to afford solution concentrations of ~0.01 M. To these solutions was added 15 mL of a 1.0 M cysteine solution also in water. The solutions were allowed to stir at room temperature overnight. The reaction progress for potential ligand displacement was monitored by ^31 P NMR spectroscopy at various timepoints over a twenty-four hour study period.
In order to determine the in vitro stability of the rhenium S2 P2 complexes 8, 9, and 10, the solutions of each were allowed to incubate at 25° C. in an aqueous solution of cysteine.

[2] = Oxidative stability of HMPE and HMPB in air and aqueous solution; type: physicochemical; conditions: air and aqueous solutions

| stability profile (kinetic inertness) ([1]; 1.0 M cysteine, 24 hours) | Molecule | ligand exchange or complex decomposition [1] | oxidative stability [2] |
| --- | --- | --- | --- |
| – | [ReO2 (HOH2 C)2 P(CH2)2 S(CH2)3 S(CH2)2 P(CH2 OH)2 ]2 Cl2 [Compound 8] | no observable ligand exchange or complex decomposition | – |
| – | OCP(CO)c1ccccc1P(CO)CO [HMPB, (HOH2 C)2 PC6 H4 P(CH2 OH)2] | – | oxidatively stable in air and also in aqueous solutions |
| – | OCP(CO)CCP(CO)CO [HMPE, (HOH2 C)2 PCH2 CH2 P(CH2 OH)2] | – | oxidatively stable in air and also in aqueous solutions |
| unusual kinetic inertness | [ReO2 (HOH2 C)2 P(CH2)3 S(CH2)3 S(CH2)3 P(CH2 OH)2 ]Cl [Compound 10] | no observable ligand exchange or complex decomposition | – |
| – | [ReO2 (HOH2 C)2 P(CH2)2 S(CH2)4 S(CH2)2 P(CH2 OH2 ]2 (ReO4^-)2 [Compound 9] | no observable ligand exchange or complex decomposition | – |
